The values below come from PubChem BioAssay AID1397 (The Scripps Research Institute Molecular Screening Center, 2008).

Molecules are shown by their SMILES. pEC50: −log10 of the molar value. Calls of active or inactive are those of the source.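 How the source made its calls: active means potency EC50 for STAT1 activation at or below 10 micromolar; inactive means EC50 above 10 micromolar.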

In the first assay the test system is NIH 3T3 STAT1-luciferase reporter, luminescence. As to the kind of experiment: STAT1 signalling activators, dose response, cell-based, NIH 3T3, luciferase luminescence (AID 1397).
Details: not given
For `CC(=O)Nc1ccccc1C(=O)OCc1cccc(F)c1`, the pEC50 (commonly −log10 of the EC50, conventionally taken in molar units) is 5.52.
As to `Nc1ccccc1C(=O)OCC(=O)N1CCc2ccccc21`, the pEC50 was 5.65.

The same assay, now with this note: cells stimulated with IFN-gamma at EC80.
On to `C/C(=C\c1ccccc1)C(=O)Nc1nccs1`, for which the pEC50 was 5.68.
On to `COc1ccc2[nH]c3c(c2c1)CCn1c-3nc2ccccc2c1=O`, for which the EC50 – broadly, the concentration needed to bring the measured effect to its halfway point – was > 76 nM (inactive).
As to `Cc1cccc(Nc2n[nH]c(C)c2[N+](=O)[O-])c1`, the pEC50 was 5.91.
On the same count and under the same terms, next, `O=C(/C=C/c1ccccc1)Nc1ccc(Cl)cn1`: 6.17; `CC(C)=CC(=O)Nc1nc2ccc([N+](=O)[O-])cc2s1`: 5.50; `CC(C)(C)N=C1NN=C(c2cc3ccccc3o2)CS1`: 6.08.
On to `O=C(c1ccccc1)c1ccc(N2CCCC2)cc1`, for which the pEC50 is 5.71.
Same read-out and setting: under `C=CCNC(=S)NNC(=O)COc1ccc2cc(Br)ccc2c1` stands 5.52; under `O=C(Nc1nccs1)c1ccc(-c2ccc([N+](=O)[O-])cc2)o1`, 5.92.
Turning to `O=C(/C=C/Nc1ccccc1F)c1ccc(Br)cc1`, the EC50 is > 76 nM (inactive).
`CCOC(=O)c1cnc2c(-c3ccccc3)cnn2c1N`: the negative-log EC50 (pEC50) was 6.64.
Same read-out and setting: next, `O=C(Cn1cnc2ccccc2c1=O)c1ccc(Cl)cc1`: 5.09; `Nc1nc2ccc(-c3nc4ccccc4o3)cc2s1`: 6.29; `COc1cccc(N/C=C/C(=O)c2ccc(Cl)cc2)c1`: 6.94.
For the molecule `CCOC(=O)c1sc(NC(=O)c2sccc2C)cc1C`, the pEC50 was 6.63.
Still for that read-out and setting: under `COc1ccc2c(c1)oc(=O)c1cc(OC)ccc12` stands 5.37.
For `Cc1ccc(/C=C/C(=O)N2CCCC(C)C2)cc1` (stereo unspecified), the EC50 is > 687 nM (inactive).
`O=C(CCc1nnc(CCCc2ccccc2)o1)N1CCCCCC1`: the pEC50 is 5.11.
Still for that read-out and setting: next, `CCOC(=O)/C(C#N)=C/c1cc(C)n(-c2ccccc2)c1C`: 7.16; `O=C(/C=C/Nc1ccc(F)cc1)c1ccc(Br)cc1`: 6.37; `O=C(/C=C/c1ccc(F)cc1)Nc1nc2ccccc2[nH]1`: 6.04.
On the same count and under the same terms, under `COc1ccc(/C=C/C(=O)Nc2ccccc2)cc1OC` stands 5.29; under `CCOC(=O)c1ccc2nc(NC(C)=O)sc2c1`, 5.59.
Turning to `Nc1ccc2oc(-c3ccccc3Cl)nc2c1`, the EC50 is > 229 nM (inactive).
As for `CCN(CC)c1ccc2cc(C(=O)Nc3ccccn3)c(=O)oc2c1`, the EC50 is > 76 nM (inactive).
Consider `NC(=O)Cc1ccc2sc(-c3ccccc3)nc2c1`, for which the pEC50 is 6.33.
On the same count and under the same terms, under `COc1ccc(-c2cc3ncc(-c4ccccc4)c(N)n3n2)cc1` stands 5.92; under `Cc1nc(-c2ccc(NC(=O)c3ccccc3C)cc2)cs1`, 5.73; under `O=C(Nc1cccc(Cl)c1)c1ccc2c(=O)n3c(nc2c1)CCCCC3`, 6.09.
Regarding `Cc1ccc(C(=O)N2CCc3ccccc32)o1`, the EC50 was > 687 nM (inactive).
As to `CCc1ccc(NC(=O)N2CCC(c3ccccc3)C2)cc1` (stereo unspecified), the pEC50 was 5.86.
Still for that read-out and setting: under `Cc1ncsc1C(=O)Nc1nc2c(s1)CCCC2` stands 5.57; under `O=C(/C=C/c1cccc(F)c1)N1CCc2ccccc21`, 6.68; under `Cc1ccc(-c2cc3nc(C)cc(NCc4ccco4)n3n2)cc1`, 5.46.
Take `C=CCNc1nc(-c2cc3ccccc3o2)cs1`: the EC50 is > 764 nM (inactive).
On to `CCc1ccc(Nc2ncc3c(n2)CC(C)CC3=O)cc1` (stereo unspecified), for which the pEC50 is 6.12.
`CCOCC(=O)Nc1nc2ccc(OCC)cc2s1`: the EC50 was > 55700 nM (inactive).
As for `c1ccc(CNc2ccc3ccccc3n2)nc1`, the EC50 is > 687 nM (inactive).
For `CCC(C)NC(=O)c1cc(-c2ccc(OC)cc2)on1` (stereo unspecified), the pEC50 was 5.89.
Still for that read-out and setting: next, `O=C(NC(=S)Nc1ccccn1)c1ccc([N+](=O)[O-])cc1`: 6.28; `COc1ccc(-c2csc(N3C(=O)CNC3=S)n2)cc1`: 7.06.
`O=C(/C=C/c1ccco1)Nc1ccccn1`: the EC50 is > 687 nM (inactive).
Turning to `Cc1ccc(-c2cnc(-c3ccncc3)o2)cc1`, the pEC50 is 5.48.
Take `CC(=O)Nc1ccc(-c2csc(Nc3cccc(C)n3)n2)cc1`: the pEC50 is 5.78.
In the case of `Cc1ccc(NC(=O)Nc2ccc3oc(C)nc3c2)cc1`, the pEC50 was 5.78.
For the molecule `CC(=O)NC(=S)Nc1sc2c(c1C#N)CCCCC2`, the EC50 was > 76 nM (inactive).
Regarding `Cc1nc2ccc(-c3nc4ccccc4o3)cc2[nH]1`, the pEC50 was 6.45.
Same read-out and setting: under `C=CCNC(=O)c1cc(-c2ccc(Br)cc2)on1` stands 6.08.
`Cc1nc(-c2ccc(NC(=O)c3ccccc3Br)cc2)cs1`: the pEC50 is 5.59.
On the same count and under the same terms, under `CN1C(=O)/C(=C/C=C2\SCCN2C)SC1=S` stands 6.38; under `Cc1ccc2nc(NC(=O)CCn3cccc3)sc2c1`, 5.16.
Still for that read-out and setting: next, `Cc1ccc(C(=O)/C=C/Nc2cccc([N+](=O)[O-])c2)o1`: 5.86.
On to `CN(C)c1ccc(C(=O)OCC(=O)c2cccs2)cc1`, for which the EC50 was > 687 nM (inactive).
With `COc1ccc2nc(Nc3nc(C)c(C(C)=O)s3)sc2c1`, the pEC50 is 5.67.
Same read-out and setting: next, `COc1ccc2nc(Nc3ccc4c(c3)OCO4)sc2c1`: 5.51.
As to `Nc1ncc(-c2cc3ccccc3oc2=O)s1`, the EC50 is > 687 nM (inactive).
On to `CC(=O)c1cccc(NC(=S)NC(=O)c2cccc(C)c2)c1`, for which the pEC50 is 5.72.
Take `O=C(NCCC1=CCCCC1)c1ccc(F)cc1`: the EC50 is > 687 nM (inactive).
On to `O=C(NC(=S)Nc1ccc(F)cc1)c1ccc2c(c1)OCCO2`, for which the pEC50 is 6.00.
For `c1csc(C2=NNC(=NC3CCCCC3)SC2)c1`, the EC50 is > 688 nM (inactive).
Regarding `Cc1ccc(-c2cc(N)n(-c3ccccc3)n2)cc1`, the pEC50 was 5.52.
As for `O=C(OCc1csc(-c2ccccc2)n1)c1cccs1`, the EC50 was > 687 nM (inactive).
Consider `COc1cccc(NC(=O)Nc2ccc(C(C)(C)C)cc2)c1`, for which the pEC50 was 5.55.
Take `COc1ccc(NC(=S)Nc2ccc3nccnc3c2)cc1`: the EC50 was 13300 nM (inactive).
Same read-out and setting: under `CN(C)c1nc(N)nc(CSc2nc3cc(Cl)ccc3o2)n1` stands 18600 nM (inactive); under `O=C(/C(C=Nc1ccc(Br)cc1)=C(/O)c1ccco1)C(F)(F)F`, > 685 nM (inactive).
Still for that read-out and setting: next, `Cc1ccc(C(=O)Nc2nc3c(s2)CCCC3)o1`: > 229 nM (inactive).
As to `O=C(Nc1ccc(-c2nc3cccnc3s2)cc1)c1ccco1`, the pEC50 is 6.47.
For the molecule `N#C/C(=C\c1ccc(N2CCOCC2)o1)c1nc2ccccc2[nH]1`, the EC50 is > 76 nM (inactive).
As to `COc1ccc(-c2cc(C)nc3c(-c4ccccc4)cnn23)cc1`, the EC50 is > 76 nM (inactive).
Turning to `COc1cc(NC(=O)c2csc3c2CCCC3)ncn1`, the pEC50 is 5.92.
For `Fc1ccc2nc(Nc3nc4cc5c(cc4s3)OCCO5)sc2c1`, the pEC50 was 5.89.
For `CCOc1ccc2nc(N3CCOCC3)nc(C)c2c1`, the pEC50 was 5.64.
Same read-out and setting: under `CCOC(=O)CSc1nc(-c2ccncc2)ccc1C#N` stands 5.92.
For `CC(=O)c1cccc(N/C=C\C(=O)c2ccc(C)cc2)c1`, the EC50 was > 687 nM (inactive).
As to `Cc1ccc(C(=O)Nc2nc3ccccc3s2)s1`, the EC50 was > 76 nM (inactive).
In the case of `Fc1ccccc1CSc1nnc(-c2cccnc2)o1`, the pEC50 is 5.34.
`CC(=O)COc1ccc2c(C)c(-c3ccccc3)c(=O)oc2c1`: the EC50 is 31500 nM (inactive).
As for `O=C(/C(C=Nc1ccc(F)cc1)=C(/O)c1ccco1)C(F)(F)F`, the EC50 was > 687 nM (inactive).
Turning to `Cc1nnc(SCC(=O)Nc2ccc(-c3nc4ccccc4s3)cc2)s1`, the pEC50 was 7.03.
As to `CCCOC(=O)c1ccc(-c2ccc(C=O)o2)cc1`, the pEC50 is 6.36.
On the same count and under the same terms, next, `COc1ccc(-c2nc3ccc([N+](=O)[O-])cc3[nH]2)cc1`: 6.90; `COc1ccc(Nc2oc(-c3cccs3)nc2C#N)cc1`: 5.49; `CCNc1nc(-c2cc3ccccc3o2)cs1`: 6.75.
Same read-out and setting: next, `Nc1ccc2nn(-c3ccccc3)nc2c1`: 5.87; `O=C(O)c1ccccc1C(=O)Nc1ccc(-c2csc(-c3ccccc3)n2)cc1`: 5.41.
Still for that read-out and setting: under `Cc1occc1C(=O)Nc1ccc2c(c1)CCC2` stands 5.80; under `CCc1c(C)[nH]c(C(=O)OCc2ccccc2)c1C`, 5.16.
In the case of `Clc1ccc(-n2ncc3c(N4CCCC4)ncnc32)cc1`, the EC50 was > 55700 nM (inactive).
On the same count and under the same terms, next, `O=C(Nc1ccc2c(c1)OCCO2)c1ccc(Br)s1`: > 229 nM (inactive).
Regarding `CCCCOC(=O)Nc1nc2ccccc2s1`, the pEC50 is 6.13.
Still for that read-out and setting: next, `COc1ccc(N/C=C\C(=O)c2ccc3c(c2)OCO3)cc1OC`: 5.54; `Clc1ccc(-n2ncc3c(NCC4CCCO4)ncnc32)cc1` (stereo unspecified): 6.39.
Take `Cc1cc(C(=O)NCCC2=CCCCC2)c(C)o1`: the EC50 was > 229 nM (inactive).
Consider `CC(=O)Nc1cccc(-c2cnc3ccccc3n2)c1`, for which the pEC50 is 5.41.
As to `CCCCCNc1nc(-c2ccccc2)cs1`, the pEC50 is 6.07.
On to `Cc1nc2ccc3nc(NC(=O)c4ccco4)sc3c2s1`, for which the EC50 was 11000 nM (inactive).
For the molecule `Nc1ccccc1Nc1cc(-c2ccccc2)[nH]n1`, the pEC50 was 5.57.
With `CC(C)Oc1ccc2c(=O)c(-c3ccccc3)coc2c1`, the pEC50 was 6.38.
On the same count and under the same terms, under `CN(C)c1ccnc2sc(C(=O)c3ccccc3)c(N)c12` stands 5.71; under `c1cncc(-c2nc3cc4ccccc4cc3[nH]2)c1`, 6.48.
In the case of `O=[N+]([O-])c1ccccc1OCCCn1cnc2ccccc21`, the pEC50 is 5.82.
`Cc1ccc(/C=C/C(=O)Nc2ccccc2C(N)=O)cc1`: the EC50 was > 687 nM (inactive).
Same read-out and setting: next, `C=CCn1c(C)cc(C(=O)CSc2nc3ccccc3o2)c1C`: > 229 nM (inactive).
